Measured values taken from US11466017B2, “Heterocyclic inhibitors of PTPN11” (priority 2011, dated 2022).

System: BT474 human breast carcinomas cell line
Experiment: In vivo tumor model, BT474 (HER2+) xenograft
Conditions: BT474 xenograft in CB-17/SCID mice, 100 mg/kg once per day oral gavage, 5 days on/2 days off, 4 weeks
Description: Xenografts were initiated with BT474 human breast carcinomas cell line and maintained by serial subcutaneous transplantation in CB-17/SCID mice (Charles River). On the day of tumor implant, each test mouse received a 1 mm^3 BT474 fragment implanted subcutaneously in the right flank, and tumor growth was monitored as the average size approached the target range of 100 to 150 mm3. About three weeks post-implantation, the animals were randomized and grouped based on tumor volume and mouse body weight. […] Tumors were measured in two dimensions using calipers, and volume was calculated using the formula: Tumor Volume (mm^3)=w^2× ½.

SMILES: CC1(N)CCN(c2cnc3c(-c4cccc(Cl)c4Cl)n[nH]c3n2)CC1 [Example 1, 1-(3-(2,3-dichlorophenyl)-1H-pyrazolo[3,4-b]pyrazin-6-yl)-4-methylpiperidin-4-amine]
- tolerability (body weight): tolerated dose
- tumor growth (tumor volume): significant suppression of tumor growth
